Test results published in the supplement of paper PMC10627819.

Key:
Test in all cases: fitness (endpoint OD595 vs no drug) (fraction); higher = more growth
[1] = test system: B. subtilis 168
How it was run: (§1)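 Fitness expresses the optical density reached at the stationary-phase transition as a fraction of the robust mean of no-drug control wells. It is capped at 1. Measurements were OD595 every 30 min for 14 h at 37 °C after inoculation of 384-well plates at OD595 0.01 (30 µl, or 55 µl for S. pneumoniae), minus the first reading.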

[2] = test system: S. aureus DSM 20231
How it was run: as §1

[3] = test system: S. pneumoniae D39V
How it was run: as §1

[4] = test system: S. aureus Newman
How it was run: as §1
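Further: OD595 on entry to stationary phase over no-drug wells; at most 1.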

CCC[C@@H]1C[C@@H](C(=O)N[C@@H]([C@H]2O[C@H](SC)[C@H](O)[C@@H](O)[C@H]2O)[C@H](C)Cl)N(C)C1 [Clindamycin] + CN(C)[C@@H]1C(O)=C(C(N)=O)C(=O)[C@@]2(O)C(O)=C3C(=O)c4c(O)ccc(Cl)c4[C@@](C)(O)[C@H]3C[C@@H]12 [Chlortetracycline]
fitness, one replicate
Details	first compound 0.0039 µg/mL	first compound 0.0078 µg/mL	first compound 0.0156 µg/mL	first compound 0.0312 µg/mL	first compound 0.0625 µg/mL	first compound 0.125 µg/mL
[1], partner 0.0475 µg/mL	0.996	0.88	0.814	–	–	–
[1], partner 0.095 µg/mL	0.911	0.831	0.721	–	–	–
[1], partner 0.19 µg/mL	0.779	0.697	0.633	–	–	–
[2], partner 0.006 µg/mL	–	–	–	0.198	0.0507	0.029

Details	fitness
[1], first compound 0.0625 µg/mL, partner 0.0475 µg/mL	0.407
[1], first compound 0.0625 µg/mL, partner 0.095 µg/mL	0.362
[1], first compound 0.0625 µg/mL, partner 0.19 µg/mL	0.0596
[1], first compound 0.125 µg/mL, partner 0.0475 µg/mL	0.352
[1], first compound 0.125 µg/mL, partner 0.095 µg/mL	0.0555
[1], first compound 0.125 µg/mL, partner 0.19 µg/mL	0.0594
[1], first compound 0.25 µg/mL, partner 0.0475 µg/mL	0.0818
[1], first compound 0.25 µg/mL, partner 0.095 µg/mL	0.0386
[1], first compound 0.25 µg/mL, partner 0.19 µg/mL	0.0515
[2], first compound 0.0312 µg/mL, partner 0.012 µg/mL	0.0617
[2], first compound 0.0312 µg/mL, partner 0.024 µg/mL	0.038
[2], first compound 0.0312 µg/mL, partner 0.048 µg/mL	0.0237
[2], first compound 0.0625 µg/mL, partner 0.012 µg/mL	0.032
[2], first compound 0.0625 µg/mL, partner 0.024 µg/mL	0.0211
[2], first compound 0.0625 µg/mL, partner 0.048 µg/mL	0.0234
[2], first compound 0.125 µg/mL, partner 0.012 µg/mL	0.0303
[2], first compound 0.125 µg/mL, partner 0.024 µg/mL	0.0207
[2], first compound 0.125 µg/mL, partner 0.048 µg/mL	0.0343
[3], first compound 0.0125 µg/mL, partner 0.012 µg/mL	0.511
[3], first compound 0.0125 µg/mL, partner 0.024 µg/mL	0.383
[3], first compound 0.0125 µg/mL, partner 0.048 µg/mL	0.205
[3], first compound 0.015 µg/mL, partner 0.375 µg/mL	0.0214
[3], first compound 0.015 µg/mL, partner 0.75 µg/mL	0.0514
[3], first compound 0.015 µg/mL, partner 1.5 µg/mL	0.0726
[3], first compound 0.025 µg/mL, partner 0.012 µg/mL	0.334
[3], first compound 0.025 µg/mL, partner 0.024 µg/mL	0.216
[3], first compound 0.025 µg/mL, partner 0.048 µg/mL	0.122
[3], first compound 0.03 µg/mL, partner 0.375 µg/mL	0.0643
[3], first compound 0.03 µg/mL, partner 0.75 µg/mL	0.0687
[3], first compound 0.03 µg/mL, partner 1.5 µg/mL	0.0605
[3], first compound 0.05 µg/mL, partner 0.012 µg/mL	0.128
[3], first compound 0.05 µg/mL, partner 0.024 µg/mL	0.13
[3], first compound 0.05 µg/mL, partner 0.048 µg/mL	0.146
[3], first compound 0.06 µg/mL, partner 0.375 µg/mL	0.0503
[3], first compound 0.06 µg/mL, partner 0.75 µg/mL	0.0714
[3], first compound 0.06 µg/mL, partner 1.5 µg/mL	0.0678

CCC[C@@H]1C[C@@H](C(=O)N[C@@H]([C@H]2O[C@H](SC)[C@H](O)[C@@H](O)[C@H]2O)[C@H](C)Cl)N(C)C1 [Clindamycin] + CO/N=C(\C(=O)N[C@@H]1C(=O)N2C(C(=O)O)=C(COC(N)=O)CS[C@H]12)c1ccco1 [Cefuroxime]
one replicate
Details	fitness
[1], first compound 0.0039 µg/mL, partner 0.195 µg/mL	0.442
[1], first compound 0.0039 µg/mL, partner 0.39 µg/mL	0.397
[1], first compound 0.0039 µg/mL, partner 0.78 µg/mL	0.389
[1], first compound 0.0078 µg/mL, partner 0.195 µg/mL	0.438
[1], first compound 0.0078 µg/mL, partner 0.39 µg/mL	0.367
[1], first compound 0.0078 µg/mL, partner 0.78 µg/mL	0.392
[1], first compound 0.0156 µg/mL, partner 0.195 µg/mL	0.366
[1], first compound 0.0156 µg/mL, partner 0.39 µg/mL	0.326
[1], first compound 0.0156 µg/mL, partner 0.78 µg/mL	0.28
[1], first compound 0.0625 µg/mL, partner 1.562 µg/mL	0.135
[1], first compound 0.0625 µg/mL, partner 3.125 µg/mL	0.0691
[1], first compound 0.0625 µg/mL, partner 6.25 µg/mL	0.0572
[1], first compound 0.125 µg/mL, partner 1.562 µg/mL	0.0526
[1], first compound 0.125 µg/mL, partner 3.125 µg/mL	0.031
[1], first compound 0.125 µg/mL, partner 6.25 µg/mL	0.0267
[1], first compound 0.25 µg/mL, partner 1.562 µg/mL	0.0448
[1], first compound 0.25 µg/mL, partner 3.125 µg/mL	0.028
[1], first compound 0.25 µg/mL, partner 6.25 µg/mL	0.0276
[4], first compound 0.0312 µg/mL, partner 0.04875 µg/mL	0.764
[4], first compound 0.0312 µg/mL, partner 0.0975 µg/mL	0.681
[4], first compound 0.0312 µg/mL, partner 0.195 µg/mL	0.718
[4], first compound 0.0625 µg/mL, partner 0.04875 µg/mL	0.358
[4], first compound 0.0625 µg/mL, partner 0.0975 µg/mL	0.304
[4], first compound 0.0625 µg/mL, partner 0.195 µg/mL	0.21
[4], first compound 0.125 µg/mL, partner 0.04875 µg/mL	0.111
[4], first compound 0.125 µg/mL, partner 0.0975 µg/mL	0.0924
[4], first compound 0.125 µg/mL, partner 0.195 µg/mL	0.078

fitness, [1]
Details	first compound 0.0625 µg/mL	first compound 0.125 µg/mL	first compound 0.25 µg/mL
partner 0.04875 µg/mL	0.396	0.401	0.218
partner 0.0975 µg/mL	0.306	0.241	0.195
partner 0.195 µg/mL	0.39	0.217	0.217

N[C@@H]1CONC1=O [Cycloserine D] + C/C(=C\C(=O)OCCCCCCCCC(=O)O)C[C@@H]1OC[C@H](C[C@@H]2O[C@H]2[C@@H](C)[C@H](C)O)[C@@H](O)[C@H]1O [Pseudomonic acid]
fitness, [4], one replicate
Details	first compound 0.375 µg/mL	first compound 0.75 µg/mL	first compound 1.5 µg/mL
partner 0.0313 µg/mL	0.0489	0.0331	0.0484
partner 0.0625 µg/mL	0.0296	0.0319	0.0149
partner 0.125 µg/mL	0.0371	0.0384	0.031

N[C@@H]1CONC1=O [Cycloserine D] + CC1(C)S[C@@H]2[C@H](NC(=O)Cc3ccccc3)C(=O)N2[C@H]1C(=O)O [Penicillin G]
fitness, [4]
Details	first compound 0.375 µg/mL	first compound 0.75 µg/mL	first compound 1.5 µg/mL
partner 0.0195 µg/mL	0.966	0.916	0.892
partner 0.039 µg/mL	0.922	0.932	0.957
partner 0.078 µg/mL	0.886	0.923	0.854

N[C@@H]1CONC1=O [Cycloserine D] + CC1=C(C(=O)O)N2C(=O)[C@@H](NC(=O)[C@H](N)c3ccccc3)[C@H]2SC1 [Cephalexin]
fitness
Details	first compound 0.125 µg/mL	first compound 0.25 µg/mL	first compound 0.375 µg/mL	first compound 0.5 µg/mL	first compound 0.75 µg/mL	first compound 1.5 µg/mL
[1], partner 0.125 µg/mL	0.865	0.894	–	0.848	–	–
[1], partner 0.25 µg/mL	0.909	0.857	–	0.921	–	–
[1], partner 0.5 µg/mL	0.911	0.88	–	0.867	–	–
[4], partner 0.25 µg/mL	–	–	0.948	–	0.955	0.926
[4], partner 0.5 µg/mL	–	–	0.972	–	≥ 1	0.971
[4], partner 1 µg/mL	–	–	0.992	–	≥ 1	0.995

[1], partner 1 µg/mL, one replicate
Details	fitness
first compound 0.125 µg/mL	≥ 1
first compound 0.25 µg/mL	0.91
first compound 0.5 µg/mL	0.985

N[C@@H]1CONC1=O [Cycloserine D] + CC(=O)NC[C@H]1CN(c2ccc(N3CCOCC3)c(F)c2)C(=O)O1 [Linezolid]
fitness, one replicate
Details	first compound 0.125 µg/mL	first compound 0.25 µg/mL	first compound 0.375 µg/mL	first compound 0.5 µg/mL	first compound 0.75 µg/mL	first compound 1.5 µg/mL
[1], partner 0.0625 µg/mL	0.943	0.866	–	0.846	–	–
[2], partner 1 µg/mL	–	–	0.0372	–	0.0417	0.0279

fitness
Details	first compound 0.125 µg/mL	first compound 0.25 µg/mL	first compound 0.375 µg/mL	first compound 0.5 µg/mL	first compound 0.75 µg/mL	first compound 1.5 µg/mL
[1], partner 0.125 µg/mL	0.566	0.574	–	0.562	–	–
[1], partner 0.25 µg/mL	0.135	0.115	–	0.13	–	–
[1], partner 0.5 µg/mL	0.0466	0.0569	–	0.0486	–	–
[2], partner 0.125 µg/mL	–	–	0.913	–	0.837	0.885
[2], partner 0.25 µg/mL	–	–	0.517	–	0.597	0.537
[2], partner 0.5 µg/mL	–	–	0.162	–	0.168	0.162
